Reference: PubChem BioAssay (NCI)
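Method: 48-hour compound exposure of cells in 96-well plates, five concentrations, linear interpolation of endpoints. Here, GI50 denotes the concentration required for 50% inhibition of growth. TGI marks complete inhibition of growth.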

How the values were obtained:
Assay in all cases: DTP human tumour cell line panel, 48 h
[1] = tested on: 786-0 renal
[2] = tested on: A498 renal
[3] = tested on: A549 NSCLC
[4] = tested on: ACHN renal
[5] = tested on: BT-549 breast
[6] = tested on: CAKI-1 renal
[7] = tested on: CCRF-CEM leukemia
[8] = tested on: COLO 205 colon
[9] = tested on: DU-145 prostate
[10] = tested on: EKVX NSCLC
[11] = tested on: HCC-2998 colon
[12] = tested on: HCT-116 colon
[13] = tested on: HCT-15 colon
[14] = tested on: HL-60(TB) leukemia
[15] = tested on: HOP-62 NSCLC
[16] = tested on: HOP-92 NSCLC
[17] = tested on: HS 578T breast
[18] = tested on: HT29 colon
[19] = tested on: IGROV1 ovarian
[20] = tested on: K-562 leukemia
[21] = tested on: KM12 colon
[22] = tested on: LOX IMVI melanoma
[23] = tested on: M14 melanoma
[24] = tested on: MALME-3M melanoma
[25] = tested on: MCF7 breast
[26] = tested on: MDA-MB-231 breast
[27] = tested on: MDA-MB-435
[28] = tested on: MOLT-4 leukemia
[29] = tested on: NCI-H226 lung
[30] = tested on: NCI-H23 lung
[31] = tested on: NCI-H460 lung
[32] = tested on: NCI-H522 lung
[33] = tested on: NCI/ADR-RES ovarian
[34] = tested on: OVCAR-3 ovarian
[35] = tested on: OVCAR-4 ovarian
[36] = tested on: OVCAR-5 ovarian
[37] = tested on: OVCAR-8 ovarian
[38] = tested on: PC-3 prostate
[39] = tested on: RPMI-8226 leukemia
[40] = tested on: RXF 393 renal
[41] = tested on: SF-268 CNS
[42] = tested on: SF-295 CNS
[43] = tested on: SF-539 CNS
[44] = tested on: SK-MEL-2 melanoma
[45] = tested on: SK-MEL-28 melanoma
[46] = tested on: SK-MEL-5 melanoma
[47] = tested on: SK-OV-3 ovarian
[48] = tested on: SN12C renal
[49] = tested on: SNB-19 CNS
[50] = tested on: SNB-75 CNS
[51] = tested on: SW-620 colon
[52] = tested on: T-47D breast
[53] = tested on: TK-10 renal
[54] = tested on: U251 CNS
[55] = tested on: UACC-257 melanoma
[56] = tested on: UACC-62 melanoma
[57] = tested on: UO-31 renal

COC1C(CO)OC(n2c3ccccc3c3c4c(c5c6ccccc6[nH]c5c32)C(=O)NC4=O)C(OC(=O)C(N)CCCCN)C1O (stereo not drawn)
GI50 [1]: 0.111 µM | TGI [1]: 3.3 µM | GI50 [2]: 0.005 µM | TGI [2]: 0.23 µM | GI50 [3]: 0.962 µM | TGI [3]: 9.04 µM | GI50 [4]: 0.0226 µM | TGI [4]: 0.169 µM | GI50 [5]: 0.165 µM | TGI [5]: 2.48 µM | GI50 [6]: 0.0232 µM | TGI [6]: 0.0655 µM | GI50 [7]: 0.0387 µM | TGI [7]: 2.83 µM | GI50 [8]: 0.0963 µM | TGI [8]: 5.67 µM | GI50 [9]: 0.168 µM | TGI [9]: 3.21 µM | GI50 [10]: 0.592 µM | TGI [10]: 3.15 µM | GI50 [11]: 0.173 µM | TGI [11]: 1.5 µM | GI50 [12]: 0.0834 µM | TGI [12]: 50 µM | GI50 [13]: 1.92 µM | TGI [13]: 9.53 µM | GI50 [14]: 0.00592 µM | TGI [14]: 0.0597 µM | GI50 [15]: 0.144 µM | TGI [15]: 2.4 µM | GI50 [16]: 0.0353 µM | TGI [16]: 0.735 µM | GI50 [17]: 0.299 µM | TGI [17]: 2.26 µM | GI50 [18]: 0.357 µM | TGI [18]: 12.9 µM | GI50 [19]: 0.102 µM | TGI [19]: 2.93 µM | GI50 [20]: 0.0308 µM | TGI [20]: 8.99 µM | GI50 [21]: 0.0529 µM | TGI [21]: 0.599 µM | GI50 [22]: 0.005 µM | TGI [22]: 0.0351 µM | GI50 [23]: 0.132 µM | TGI [23]: 3.23 µM | GI50 [24]: 0.0245 µM | TGI [24]: 0.157 µM | GI50 [25]: 0.0796 µM | TGI [25]: 5.45 µM | GI50 [26]: 0.0504 µM | TGI [26]: 1.01 µM | GI50 [27]: 0.123 µM | TGI [27]: 1.43 µM | GI50 [28]: 0.056 µM | TGI [28]: 13.3 µM | GI50 [29]: 0.0371 µM | TGI [29]: 0.291 µM | GI50 [30]: 0.2 µM | TGI [30]: 1.53 µM | GI50 [31]: 1.06 µM | TGI [31]: 3.78 µM | GI50 [32]: 0.0157 µM | TGI [32]: 0.44 µM | GI50 [33]: 1.4 µM | TGI [33]: 21.9 µM | GI50 [34]: 0.144 µM | TGI [34]: 1.16 µM | GI50 [35]: 0.593 µM | TGI [35]: 5.71 µM | GI50 [36]: 0.386 µM | TGI [36]: 2.8 µM | GI50 [37]: 0.119 µM | TGI [37]: 6.97 µM | GI50 [38]: 0.116 µM | TGI [38]: 2.58 µM | GI50 [39]: 1.33 µM | TGI [39]: 11.6 µM | GI50 [40]: 0.0537 µM | TGI [40]: 0.815 µM | GI50 [41]: 0.0232 µM | TGI [41]: 0.721 µM | GI50 [42]: 0.165 µM | TGI [42]: 1.95 µM | GI50 [43]: 0.0173 µM | TGI [43]: 0.139 µM | GI50 [44]: 0.505 µM | TGI [44]: 1.71 µM | GI50 [45]: 0.165 µM | TGI [45]: 2.26 µM | GI50 [46]: 0.0426 µM | TGI [46]: 0.125 µM | GI50 [47]: 0.225 µM | TGI [47]: 3.91 µM | GI50 [48]: 0.0237 µM | TGI [48]: 0.0562 µM | GI50 [49]: 0.0889 µM | TGI [49]: 14.2 µM | GI50 [50]: 0.156 µM | TGI [50]: 3.66 µM | GI50 [51]: 0.0108 µM | TGI [51]: 1.67 µM | GI50 [52]: 0.0145 µM | TGI [52]: 0.187 µM | GI50 [53]: 0.371 µM | TGI [53]: 1.46 µM | GI50 [54]: 0.0128 µM | TGI [54]: 0.311 µM | GI50 [55]: 0.437 µM | TGI [55]: 5.3 µM | GI50 [56]: 0.0281 µM | TGI [56]: 0.185 µM | GI50 [57]: 0.215 µM | TGI [57]: 0.903 µM

O=c1c2cc(I)ccc2nc(-c2cccs2)n1-c1ccc(S(=O)(=O)Nc2nccs2)cc1
GI50 [1]: 54.1 µM | TGI [1]: > 100 µM | GI50 [2]: 22.7 µM | TGI [2]: 71.5 µM | GI50 [3]: 49.1 µM | TGI [3]: > 100 µM | GI50 [4]: 41.3 µM | TGI [4]: > 100 µM | GI50 [5]: 22.3 µM | TGI [5]: 60.6 µM | GI50 [6]: 21.1 µM | TGI [6]: 52 µM | GI50 [7]: 38.4 µM | TGI [7]: > 100 µM | GI50 [8]: 33.5 µM | TGI [8]: > 100 µM | GI50 [9]: 27.4 µM | TGI [9]: > 100 µM | GI50 [10]: 20.8 µM | TGI [10]: 55.5 µM | GI50 [11]: 29.5 µM | TGI [11]: 62.5 µM | GI50 [12]: 37.1 µM | TGI [12]: > 100 µM | GI50 [13]: 42.6 µM | TGI [13]: > 100 µM | GI50 [14]: 50.4 µM | TGI [14]: > 100 µM | GI50 [15]: 42.8 µM | TGI [15]: > 100 µM | GI50 [16]: 28.8 µM | TGI [16]: > 100 µM | GI50 [17]: 26.2 µM | TGI [17]: 84.1 µM | GI50 [18]: > 100 µM | TGI [18]: > 100 µM | GI50 [19]: 33.2 µM | TGI [19]: > 100 µM | GI50 [20]: 36.6 µM | TGI [20]: > 100 µM | GI50 [21]: 39.2 µM | TGI [21]: > 100 µM | GI50 [22]: 28.9 µM | TGI [22]: 82.8 µM | GI50 [23]: > 100 µM | TGI [23]: > 100 µM | GI50 [24]: 36.7 µM | TGI [24]: 99.9 µM | GI50 [25]: 41.7 µM | TGI [25]: > 100 µM | GI50 [26]: 25.1 µM | TGI [26]: 73.5 µM | GI50 [27]: 36.8 µM | TGI [27]: > 100 µM | GI50 [28]: 61.4 µM | TGI [28]: > 100 µM | GI50 [29]: 24.9 µM | TGI [29]: 74.8 µM | GI50 [30]: 22.5 µM | TGI [30]: > 100 µM | GI50 [31]: 34.2 µM | TGI [31]: > 100 µM | GI50 [32]: 25.9 µM | TGI [32]: 76 µM | GI50 [33]: 88.1 µM | TGI [33]: > 100 µM | GI50 [34]: 25.3 µM | TGI [34]: 83.8 µM | GI50 [35]: 86.9 µM | TGI [35]: > 100 µM | GI50 [36]: 35.3 µM | TGI [36]: > 100 µM | GI50 [37]: 32 µM | TGI [37]: 98 µM | GI50 [38]: 38.4 µM | TGI [38]: > 100 µM | GI50 [39]: 38.4 µM | TGI [39]: > 100 µM | GI50 [40]: 40 µM | TGI [40]: > 100 µM | GI50 [41]: 29.6 µM | TGI [41]: > 100 µM | GI50 [42]: 27.6 µM | TGI [42]: > 100 µM | GI50 [43]: 22.6 µM | TGI [43]: 44.5 µM | GI50 [44]: 33.2 µM | TGI [44]: > 100 µM | GI50 [45]: 78.5 µM | TGI [45]: > 100 µM | GI50 [46]: 19.7 µM | TGI [46]: 44.2 µM | GI50 [47]: 66.6 µM | TGI [47]: > 100 µM | GI50 [48]: 37.2 µM | TGI [48]: > 100 µM | GI50 [49]: 41.9 µM | TGI [49]: > 100 µM | GI50 [50]: > 100 µM | TGI [50]: > 100 µM | GI50 [51]: 31.3 µM | TGI [51]: > 100 µM | GI50 [52]: 34.4 µM | TGI [52]: > 100 µM | GI50 [53]: 35.2 µM | TGI [53]: > 100 µM | GI50 [54]: 27.2 µM | TGI [54]: 81.7 µM | GI50 [55]: 41.8 µM | TGI [55]: > 100 µM | GI50 [56]: 22.8 µM | TGI [56]: 52.1 µM | GI50 [57]: 22.6 µM | TGI [57]: 51.6 µM
